From article PMC5847527, “Identification of a novel 2-oxindole fluorinated derivative as in vivo antitumor agent for prostate cancer acting via AMPK activation” (Scientific Reports, 2018) come the findings set out here.

Assay [1] deals with T1, AMPK (Homo sapiens, UniProt Q13131).
T1 construct: endogenous in cells; host or cells: PC-3, DU145, LNCaP
Nature of the assay: AMPK and ACC phosphorylation by Western blot in PC-3 cells. The format is cell-based. The settings on record: 25 µM, 1 hour. From the text:
To investigate the effect of the compounds on AMPK activity at cellular level, compounds 8a-c and 9a-b were selected to perform AMPK phosphorylation assays in human prostate cancer cell lines. We use the PC-3 cell line as it is androgen-resistant and represents the advanced and aggressive stage of prostate cancer. […] AMPK inhibits lipogenic pathway through phosphorylation of its well-known substrate acetyl-CoA carboxylase (ACC). To confirm the modulation of AMPK activity in prostate cells by the compounds, we determined levels of phosphorylated ACC in 2-oxindole fluorinated derivatives-treated cells. […] It is worthy to note that the highest ACC phosphorylation was obtained with compound 8c denoting a powerful activity of this compound in PC-3 cells.
Figure 2 Effect of 2-oxindole fluorinated derivatives on AMPK activity in prostate cancer cells. (A) PC-3, DU145 and LNCaP cells were treated with 25 µM of the selected 2-oxindole fluorinated derivatives for 1 hour. Levels of the phosphorylated AMPK (pAMPK), phosphorylated ACC (pACC) and their total forms were determined by Western blot. Upper panel, a representative Western blot of three different experiments. β-tubulin (β-Tub) serves as a loading control. […] Lower panels, densitometric analyses of bands represented as the mean of the ratio pAMPK/AMPK or pACC/ACC ± SD of three different experiments. *p < 0.05 compared with the controls by one-way ANOVA followed by Fisher’s LSD test; ^#p < 0.05 compared with 2-oxindole fluorinated derivates or with the AMPK activators AMP or A769662 by one-way ANOVA followed by Tukey test.
Human prostate cancer epithelial PC-3, DU145 and LNCaP and human prostate normal RWPE-1 cells were purchased from American Type Culture Collection (ATCC CRL-1435 CRL-1740 and CRL 11609 respectively) (Rockville, MD, USA). The human prostate normal PNT2 cell line was purchased to ECACC (European Collection of Cell cultures, Salisbury, SP4 0JG, UK). Cells were routinely grown in RPMI 1640 medium supplemented with 100 IU/ml penicillin G sodium, 100 µg/ml streptomycin sulfate, 0.25 µg/ml amphotericin B (Invitrogen, Paisley, UK) and 10% fetal calf serum. Cells were used at passages between 10–20. For treatment experiments, cells were plated and grown over night, the medium was then replaced with serum-free RPMI 1640 for 24 hours and then incubated with different doses of the compounds for the indicated times.
Cells were lysed in Lysis buffer (50 mM Tris pH 7.4, 0.8 M NaCl, 5 mM MgCl2, 0.1% Triton X-100) containing Protease Inhibitor and Phosphatase inhibitor Cocktails (Roche, Basel, Switzerland). Protein concentrations were measured by BioRad™ protein assay kit (Richmond, CA, USA). Equal amount of protein (20 μg) from each sample was separated on 8% SDS–PAGE gels and transferred to PVDF membranes (BioRad). The membranes were blocked with blocking buffer (1× TBS, 0.1% Tween 20 with 5% w/v fat-free dry milk), washed and incubated with primary antibodies at 4 °C for 12 h. The membranes were subsequently washed with TBS-T (1× TBS and 0.1% Tween 20) and incubated with horseradish peroxidase-conjugated anti-mouse or anti-rabbit IgG antibodies (Sigma, St Louis, MO, USA) at room temperature for 1 h. The immune complex was visualized with an ECL system (Cell Signaling Technology). Films were analyzed by densitometry. The anti-pAMPKα1-thr172, pACC-ser79, pP53, P21, pRaptor and the antibodies against the corresponding total forms were obtained from Cell Signaling Technology (Danvers, MA, USA). The anti-caspase 3 and anti-procaspase 3 were from Santa Cruz Biotechnology (Dallas, Texas, USA). The anti-HIF1A was from Novus Biologicals LLC (Littleton, CO, USA). The anti-Cyclin D1 antibody was obtained from ThermoFisher (Alcobendas, Madrid, Spain). All the other chemicals were obtained from Sigma (St. Louis, MO, USA).
In general terms: In western blotting, separated proteins are transferred to a membrane and probed.

The test system of assay [2] is Cyclin D1. Kind of assay: Cyclin D1 level by Western blot in PC-3 and LNCaP cells. The format is cell-based, human. As to the method:
Figure 4 Cell Cycle analysis in 8c-treated prostate cancer cells. (A) PC-3 and LNCaP cells were treated with compound 8c for 24 hours and cell cycle analysis was analyzed by flow cytometry using Propidium Iodide (PI). Percentage of cells in subG0, G1, S, and G2/M phases is indicated in the histogram. (B) Levels of Cyclin D1, p-p53, p53, p21 and cleaved Caspase 3 (17 kDa fragment) were determined by Western blot. Upper panel, representative Western blot of two different experiments. β-tubulin (β-Tub) serves as a loading control. Lower panel, the densitometric analyses of bands represented as the mean ± SD of the two different experiments. *p < 0.05 and **p < 0.01 compared with the control group by the Student’s t-test.
There are many intracellular mechanisms whereby AMPK activation inhibits cell growth. […] To further investigate the mechanism underpinning the cell viability inhibitory effect of compound 8c, levels of Cyclin D1 were determined by Western blot in PC-3 and LNCaP cells.
(§1) Cells were lysed in Lysis buffer (50 mM Tris pH 7.4, 0.8 M NaCl, 5 mM MgCl2, 0.1% Triton X-100) containing Protease Inhibitor and Phosphatase inhibitor Cocktails (Roche, Basel, Switzerland). Protein concentrations were measured by BioRad™ protein assay kit (Richmond, CA, USA). […] Films were analyzed by densitometry. […]

Assay [3] deals with p21. Nature of the assay: p21 level by Western blot in PC-3 and LNCaP cells. The format is cell-based, human. As to the method: Figure 4 Cell Cycle analysis in 8c-treated prostate cancer cells. (A) PC-3 and LNCaP cells were treated with compound 8c for 24 hours and cell cycle analysis was analyzed by flow cytometry using Propidium Iodide (PI). Percentage of cells in subG0, G1, S, and G2/M phases is indicated in the histogram. (B) Levels of Cyclin D1, p-p53, p53, p21 and cleaved Caspase 3 (17 kDa fragment) were determined by Western blot. Upper panel, representative Western blot of two different experiments. β-tubulin (β-Tub) serves as a loading control. […]
Cyclin D1 activity is modulated by several inhibitors such as p21 which negatively regulate cell cycle progression by interacting with cyclin dependent kinases (cdks). […] To further study the role of compound 8c in cell cycle, we determined the expression of p21, p53 and the levels of cleaved caspase 3 in the prostate cells. P53 was only determined in LNCaP cells since PC-3 cells are p53-negative[40].
as §1

SMILES strings stand for the structures.

T1 sequence (Q13131 whole entry): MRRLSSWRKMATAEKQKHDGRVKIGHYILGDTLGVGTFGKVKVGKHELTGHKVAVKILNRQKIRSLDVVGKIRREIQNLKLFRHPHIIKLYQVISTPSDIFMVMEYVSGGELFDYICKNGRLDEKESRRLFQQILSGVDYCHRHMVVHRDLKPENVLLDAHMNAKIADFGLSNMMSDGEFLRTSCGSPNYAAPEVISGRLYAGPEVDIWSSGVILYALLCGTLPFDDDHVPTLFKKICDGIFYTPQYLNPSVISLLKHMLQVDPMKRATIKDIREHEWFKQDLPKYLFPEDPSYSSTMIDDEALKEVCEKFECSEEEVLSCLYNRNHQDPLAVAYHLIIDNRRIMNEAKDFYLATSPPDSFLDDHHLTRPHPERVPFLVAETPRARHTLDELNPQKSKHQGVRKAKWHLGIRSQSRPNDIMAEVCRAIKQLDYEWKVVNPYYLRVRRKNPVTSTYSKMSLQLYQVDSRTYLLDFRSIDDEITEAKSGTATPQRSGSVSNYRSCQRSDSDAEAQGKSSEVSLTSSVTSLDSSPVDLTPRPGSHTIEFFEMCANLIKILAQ
T1 sequence (Q9Y478 2-270 partner limits assumed): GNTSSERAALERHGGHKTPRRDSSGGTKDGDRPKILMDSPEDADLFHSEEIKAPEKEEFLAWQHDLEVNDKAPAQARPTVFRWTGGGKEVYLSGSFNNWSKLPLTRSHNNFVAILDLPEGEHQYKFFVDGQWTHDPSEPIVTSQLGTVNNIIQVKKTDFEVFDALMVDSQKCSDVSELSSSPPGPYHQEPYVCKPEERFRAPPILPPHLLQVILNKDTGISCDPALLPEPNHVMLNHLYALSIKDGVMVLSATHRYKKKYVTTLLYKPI
T1 sequence (P54619 whole entry partner): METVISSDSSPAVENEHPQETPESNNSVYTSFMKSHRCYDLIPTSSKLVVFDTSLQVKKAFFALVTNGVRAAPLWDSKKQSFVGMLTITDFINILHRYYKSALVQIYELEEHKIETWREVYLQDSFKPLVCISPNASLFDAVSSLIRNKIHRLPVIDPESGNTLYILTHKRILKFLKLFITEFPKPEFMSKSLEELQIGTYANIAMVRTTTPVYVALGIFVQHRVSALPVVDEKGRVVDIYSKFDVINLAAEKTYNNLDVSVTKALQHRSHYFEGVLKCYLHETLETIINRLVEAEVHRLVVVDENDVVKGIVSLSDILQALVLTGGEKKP

For `O=C1Nc2ccccc2C1(F)Cc1ccc(-c2ccccc2)o1` (stereo not shown) [Compound 8c, 3-fluoro-3-((5-phenylfuran-2-yl)methyl)indolin-2-one], the “ACC phosphorylation (pACC/ACC)” value in assay [1] was “augmented pACC”. The “Thr172 phosphorylation of AMPK (pAMPK/AMPK)” value in assay [1] (compared to controls) was “significant increase in Thr172 phosphorylation of AMPK”. The “Cyclin D1 level” value in assay [2] is on record as “marked decrease in Cyclin D1 level”. The p21 protein level result in assay [3] is recorded as “remarkably increase in p21 protein”.
